Reference: patent US8362027B2, “Iontophoretic preparation for treatment of breast cancer and/or mastitis” (Kowa Co., Ltd., priority 2005, dated 2013)
Read-outs that look alike come from different tables or passages of the source.

Experiments:
[1] = not given; remark: listed apart in the source
[2] = nipple skin (corrected to nipple part only), no application of electric potential, 60 min
[3] = nipple skin (corrected to nipple part only), no application of electric potential, 120 min
[4] = nipple skin (corrected to nipple part only), no application of electric potential, 180 min
[5] = nipple skin, no application of electric potential

## O=P1(N(CCCl)CCCl)NCCCO1 (stereo not shown) [cyclophosphamide]
Nipple skin (corrected to nipple part only), application of electric potential (0.1 mA/cm^2), 0 min
  permeated amount of cyclophosphamide: 0.0 μg/cm^2
Nipple skin (corrected to nipple part only), application of electric potential (0.1 mA/cm^2), 30 min
  permeated amount of cyclophosphamide: 34.3 μg/cm^2
Nipple skin (corrected to nipple part only), application of electric potential (0.1 mA/cm^2), 60 min
  permeated amount of cyclophosphamide: 123.2 μg/cm^2
Nipple skin (corrected to nipple part only), application of electric potential (0.1 mA/cm^2), 90 min
  permeated amount of cyclophosphamide: 125.3 μg/cm^2
Nipple skin (corrected to nipple part only), application of electric potential (0.1 mA/cm^2), 120 min
  permeated amount of cyclophosphamide: 121.4 μg/cm^2
Nipple skin (corrected to nipple part only), application of electric potential (0.1 mA/cm^2), 150 min
  permeated amount of cyclophosphamide: 120.4 μg/cm^2
Nipple skin (corrected to nipple part only), application of electric potential (0.1 mA/cm^2), 180 min
  permeated amount of cyclophosphamide: 123.1 μg/cm^2
Nipple skin (corrected to nipple part only), no application of electric potential, 0 min
  permeated amount of cyclophosphamide: 0.0 μg/cm^2
Nipple skin (corrected to nipple part only), no application of electric potential, 30 min
  permeated amount of cyclophosphamide: 24.9 μg/cm^2
[2]
  permeated amount of cyclophosphamide: 2.0 μg/cm^2
Nipple skin (corrected to nipple part only), no application of electric potential, 90 min
  permeated amount of cyclophosphamide: 6.9 μg/cm^2
[3]
  permeated amount of cyclophosphamide: 20.2 μg/cm^2
Nipple skin (corrected to nipple part only), no application of electric potential, 150 min
  permeated amount of cyclophosphamide: 1.4 μg/cm^2
[4]
  permeated amount of cyclophosphamide: 6.9 μg/cm^2
Nipple skin, application of electric potential (0.1 mA/cm^2)
  Increase rate of permeated amount after 180 minutes with respect to normal skin without application of electric potential: 7.1
[5]
  Increase rate of permeated amount after 180 minutes with respect to normal skin without application of electric potential: 0.4
Nipple without electric potential, compared with normal skin
  change of permeability of cyclophosphamide: not enhanced
nipple, electric potential (0.1 mA/cm^2), vs normal skin without potential
  increase of permeability of cyclophosphamide: about 7.1 times
Normal skin, application of electric potential (0.1 mA/cm^2)
  Increase rate of permeated amount after 180 minutes with respect to normal skin without application of electric potential: 0.9
Normal skin, application of electric potential (0.1 mA/cm^2), 0 min, donor 25 mM, pH 3
  permeated amount of cyclophosphamide: 0.0 μg/cm^2
Normal skin, application of electric potential (0.1 mA/cm^2), 30 min, donor 25 mM, pH 3
  permeated amount of cyclophosphamide: 13.4 μg/cm^2
Normal skin, application of electric potential (0.1 mA/cm^2), 60 min, donor 25 mM, pH 3
  permeated amount of cyclophosphamide: 13.9 μg/cm^2
Normal skin, application of electric potential (0.1 mA/cm^2), 90 min, donor 25 mM, pH 3
  permeated amount of cyclophosphamide: 13.7 μg/cm^2
Normal skin, application of electric potential (0.1 mA/cm^2), 120 min, donor 25 mM, pH 3
  permeated amount of cyclophosphamide: 16.2 μg/cm^2
Normal skin, application of electric potential (0.1 mA/cm^2), 150 min, donor 25 mM, pH 3
  permeated amount of cyclophosphamide: 16.3 μg/cm^2
Normal skin, application of electric potential (0.1 mA/cm^2), 180 min, donor 25 mM, pH 3
  permeated amount of cyclophosphamide: 16.2 μg/cm^2
Normal skin, electric potential applied (0.1 mA/cm^2), vs without potential
  change of permeability of cyclophosphamide: hardly changed
Normal skin, no application of electric potential, 0 min, donor 25 mM, pH 3
  permeated amount of cyclophosphamide: 0.0 μg/cm^2
Normal skin, no application of electric potential, 30 min, donor 25 mM, pH 3
  permeated amount of cyclophosphamide: 13.3 μg/cm^2
Normal skin, no application of electric potential, 60 min, donor 25 mM, pH 3
  permeated amount of cyclophosphamide: 14.4 μg/cm^2
Normal skin, no application of electric potential, 90 min, donor 25 mM, pH 3
  permeated amount of cyclophosphamide: 15.0 μg/cm^2
Normal skin, no application of electric potential, 120 min, donor 25 mM, pH 3
  permeated amount of cyclophosphamide: 15.5 μg/cm^2
Normal skin, no application of electric potential, 150 min, donor 25 mM, pH 3
  permeated amount of cyclophosphamide: 17.2 μg/cm^2
Normal skin, no application of electric potential, 180 min, donor 25 mM, pH 3
  permeated amount of cyclophosphamide: 17.4 μg/cm^2

## O=c1[nH]cc(F)c(=O)[nH]1 [5-fluorouracil]
[1]; nipple skin (corrected to nipple part only), application of electric potential (3 V), 60 min
  permeated amount of 5-fluorouracil: 17.6 μg/cm^2
[1]; nipple skin (corrected to nipple part only), application of electric potential (3 V), 120 min
  permeated amount of 5-fluorouracil: 151.7 μg/cm^2
[1]; nipple skin (corrected to nipple part only), application of electric potential (3 V), 180 min
  permeated amount of 5-fluorouracil: 383.3 μg/cm^2
[1]; nipple skin (corrected to nipple part only), application of electric potential (3 V), 240 min
  permeated amount of 5-fluorouracil: 676.3 μg/cm^2
[1]; nipple skin (corrected to nipple part only), application of electric potential (3 V), 300 min
  permeated amount of 5-fluorouracil: 1032.3 μg/cm^2
[1]; nipple skin (corrected to nipple part only), application of electric potential (3 V), 360 min
  permeated amount of 5-fluorouracil: 1391.3 μg/cm^2
[1]; [2]
  permeated amount of 5-fluorouracil: 0.0 μg/cm^2
[1]; [3]
  permeated amount of 5-fluorouracil: 0.2 μg/cm^2
[1]; [4]
  permeated amount of 5-fluorouracil: 0.7 μg/cm^2
[1]; nipple skin (corrected to nipple part only), no application of electric potential, 240 min
  permeated amount of 5-fluorouracil: 1.6 μg/cm^2
[1]; nipple skin (corrected to nipple part only), no application of electric potential, 300 min
  permeated amount of 5-fluorouracil: 3.0 μg/cm^2
[1]; nipple skin (corrected to nipple part only), no application of electric potential, 360 min
  permeated amount of 5-fluorouracil: 5.6 μg/cm^2
[1]; nipple skin, application of electric potential (3 V)
  Increase rate of permeated amount after 360 minutes with respect to normal skin without application of electric potential: 9937.8
[1]; [5]
  Increase rate of permeated amount after 360 minutes with respect to normal skin without application of electric potential: 39.7
[1]; nipple, compared with the permeability without application of electric potential
  increase of permeability of 5-fluorouracil: about 40 times
[1]; nipple, electric potential applied (3V), vs normal skin
  increase of permeability of 5-fluorouracil: about 10000 times
[1]; normal skin, application of electric potential (3 V)
  Increase rate of permeated amount after 360 minutes with respect to normal skin without application of electric potential: 3430.7
[1]; normal skin, application of electric potential (3 V), 60 min, donor 1%, pH 8.5
  permeated amount of 5-fluorouracil: 1.3 μg/cm^2
[1]; normal skin, application of electric potential (3 V), 120 min, donor 1%, pH 8.5
  permeated amount of 5-fluorouracil: 11.7 μg/cm^2
[1]; normal skin, application of electric potential (3 V), 180 min, donor 1%, pH 8.5
  permeated amount of 5-fluorouracil: 44.4 μg/cm^2
[1]; normal skin, application of electric potential (3 V), 240 min, donor 1%, pH 8.5
  permeated amount of 5-fluorouracil: 121.5 μg/cm^2
[1]; normal skin, application of electric potential (3 V), 300 min, donor 1%, pH 8.5
  permeated amount of 5-fluorouracil: 264.9 μg/cm^2
[1]; normal skin, application of electric potential (3 V), 360 min, donor 1%, pH 8.5
  permeated amount of 5-fluorouracil: 480.3 μg/cm^2
[1]; normal skin, electric potential applied (3V), vs without potential
  increase of permeability of 5-fluorouracil: about 3000 times
[1]; normal skin, no application of electric potential, 60 min, donor 1%, pH 8.5
  permeated amount of 5-fluorouracil: 0.0 μg/cm^2
[1]; normal skin, no application of electric potential, 120 min, donor 1%, pH 8.5
  permeated amount of 5-fluorouracil: 0.0 μg/cm^2
[1]; normal skin, no application of electric potential, 180 min, donor 1%, pH 8.5
  permeated amount of 5-fluorouracil: 0.0 μg/cm^2
[1]; normal skin, no application of electric potential, 240 min, donor 1%, pH 8.5
  permeated amount of 5-fluorouracil: 0.0 μg/cm^2
[1]; normal skin, no application of electric potential, 300 min, donor 1%, pH 8.5
  permeated amount of 5-fluorouracil: 0.1 μg/cm^2
[1]; normal skin, no application of electric potential, 360 min, donor 1%, pH 8.5
  permeated amount of 5-fluorouracil: 0.1 μg/cm^2
